Where a name gives a salt, the structure may show the parent alone.
How the values were obtained:
[1] = biological target: T1, SIRT2 (Homo sapiens, UniProt Q8IXJ6); test: In vitro SIRT2 deacetylase inhibition, electrophoretic mobility shift assay; assay type: biochemical; details: for SIRT2 inhibition activity (in words): in vitro; for IC50: recombinant SIRT2, FAM-RHKK(Ac)LM peptide, 1 mM NAD, 60 min 37 °C, mean ± SD, read-out: IC50 against SIRT2
T1 sequence (Q8IXJ6 1-389): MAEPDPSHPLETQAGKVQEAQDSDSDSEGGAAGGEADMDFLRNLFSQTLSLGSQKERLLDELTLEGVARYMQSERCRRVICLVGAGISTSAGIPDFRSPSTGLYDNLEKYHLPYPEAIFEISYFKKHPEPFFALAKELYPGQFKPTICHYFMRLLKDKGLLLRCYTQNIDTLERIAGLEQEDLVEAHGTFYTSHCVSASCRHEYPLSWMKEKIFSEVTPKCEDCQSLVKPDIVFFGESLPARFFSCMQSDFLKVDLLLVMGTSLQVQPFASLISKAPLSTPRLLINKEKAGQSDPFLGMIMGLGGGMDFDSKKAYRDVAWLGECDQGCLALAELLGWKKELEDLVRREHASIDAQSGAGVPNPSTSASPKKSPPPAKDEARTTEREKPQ
From the text: The designs of the new STLC derivatives were based on TH-3 by conserving its trityl group, whereas the L-histidine moiety was replaced by L-cysteine. To obtain exhaustive structure–activity relationship (SAR) information, the amino group was reductively alkylated or acylated using different substituted aldehydes and acyl chlorides, respectively. The terminal methyl ester group was kept or converted to hydrazide (Figure 2). […] Two noncommercially available aldehydes, 4-(dimethylamino)picolinaldehyde and 4-(diethylamino)picolinaldehyde, were prepared as described previously. Thereafter, the in vitro SIRT2 inhibitory activities of these synthesized compounds were examined using electrophoretic mobility shift assays
Deacetylase activities of SIRT2 were measured with an electrophoretic mobility shift assay. […] After 60 min at 37 °C, the reaction was stopped by adding nicotinamide (final concentration 10 mM) in 50 μL stop buffer (100 mM HEPES (pH 7.5), 10 mM EDTA, 0.25% CR-3). The samples were analyzed using a LabChip EZ Reader II (PerkinElmer, Waltham, MA, USA). Percent conversion was defined as 100 × P / (P + S), where P and S are peak heights of the product and peptide substrate, respectively. The IC50 values were determined as means with standard deviation calculated from at least three independent dose–response curves using Origin software (OriginLab, Northampton, MA, USA).

[2] = test system: HeLa; test: MTT assay, HeLa cells; assay type: cell-based, human; details: 96 h exposure, cervical cancer
From the text: (§1) Next, the three active compounds (STC4, STC9, and STC11) were utilized for a cell-based assay to explore their potential antiproliferative effect against different cancer cell lines, including MCF7 (breast cancer), HeLa (cervical cancer), and different genotypes of leukemic cells (K562, MT-2, and HL-60) using an MTT assay. […] In general, STC11 cellular activity was less than STC4 and STC9. This may be explained by the lower cellular permeability due to the presence of the more polar hydrazide group.
(§2) HeLa human cervical carcinoma cell lines were incubated in Dulbecco’s modified Eagle’s medium. MCF-7 human breast cancer, leukemic (K562, HL-60, MT-2, and Jurkat), and normal blood (PBMC) (Precision Bioservices, Frederic, MD, USA) cells were incubated in RPMI1640 medium. All media (Wako, Osaka, Japan) were supplemented with 10% fetal bovine serum (Sigma-Aldrich, St. Louis, MO, USA) and 89 μg/mL streptomycin (Meiji Seika, Tokyo, Japan) at 37 °C in a humidified atmosphere of 95% air and 5% CO2. Exponentially growing cells were cultured in 24-well and 96-well plates (Iwaki brand Asahi Glass, Tokyo, Japan) at 2 × 10^4 cells/mL and 1 × 10^6 cells/mL, respectively, for 96 h before the addition of drugs (optimum cell number for cytotoxicity assays was determined in preliminary experiments). Stock solutions of compounds in concentrations between 0.01–10 mM were prepared in dimethyl sulfoxide (DMSO; Wako, Osaka, Japan) and further dilution was made with fresh culture medium. The concentration of DMSO in the final culture medium was 1%, which had no effect on cell viability.
(§3) The level of cellular MTT (Dojindo, Kumamoto, Japan) reduction was quantified as described previously […] At the end of this period, cells were stained with MTT solution and incubated for an additional 4 h at 37 °C. After the medium was removed, the formazan crystals were solubilized by addition of 100 μL DMSO to each well, and absorbance was determined using an Infinitive M1000 plate reader (Tecan, Mannedorf, Switzerland) at a wavelength of 550 nm with background subtraction at 630 nm. Every concentration was repeated in three wells, and IC50 values were calculated from MTT results and defined as the drug concentrations that reduced absorbance to 50% of the control values.

[3] = test system: MCF-7; test: MTT assay, MCF-7 cells; assay type: cell-based, human; details: breast cancer
From the text: as §1, §2, §3

[4] = test system: K562; test: MTT assay, K562 cells; assay type: cell-based, human; details: leukemic cells
From the text: as §1, §2, §3

[5] = test system: HL-60; test: MTT assay, HL-60 cells; assay type: cell-based, human; details: leukemic cells
From the text: as §1, §2, §3

[6] = test system: MT-2; test: MTT assay, MT-2 cells; assay type: cell-based, human; details: leukemic cells
From the text: as §1, §2, §3

[7] = test system: plasmid DNA (pUC19 DNA); test: DNA cleavage assay with plasmid DNA; details: 1 μM concentration, 37 °C, 2 h, with and without iron (II), H2O2, ascorbic acid
Method: We then tested DNA cleavage as a possible molecular mechanism for cytotoxicity of the tested compounds using plasmid DNA (pUC19 DNA) witH- and without iron (II), H2O2, and ascorbic acid complex (Figure 3). The DNA cleavage reaction was carried out by incubating the reaction mixture at 37 °C for 2 h, and electrophoresis was performed. After electrophoresis, the DNA was stained with ethidium bromide, and the bands were visualized by exposure to ultraviolet radiation and recorded using an electronic camera. […] Furthermore, these compounds may activate oxygen in the cytoplasm. This may explain their high cellular cytotoxic activity owing to a dual effect combining SIRT2 inhibition and DNA cleavage.
The DNA cleavage assays were performed as described previously. Intensity of the bands was quantitated using ImageJ software (NIH, Bethesda, MD, USA).
Figure 3 The inhibitory effects of selected compounds on DNA cleavage in the presence and absence of FeSO4, H2O2, and ascorbic acid. (A) Form I (supercoil), form II (single strand break), and form III (double strand break) bands after electrophoresis. The Form I band is the lower and the Form II band is the upper portion. The pUC19 enzyme cut (by EcoR I) generates form III with mid mobility (the second lane from the left). (B) Relative intensity of form I and form II bands.

[8] = test system: NCI 60 tumor cell line; design: method as in doi:10.1002/ddr.430340203; details: NCI 60 tumor cell line screen; cited from earlier work
[9] = Homo sapiens, MCF7, 96 h exposure
[10] = Homo sapiens, K562, 96 h exposure
[11] = Homo sapiens, HL-60, 96 h exposure
[12] = Homo sapiens, MT2, 96 h exposure

COC(=O)C(N)CSC(c1ccccc1)(c1ccccc1)c1ccccc1 (stereo in doubt) [Compound 1, S-Trityl-L-Cysteine Methyl Ester Hydrochloride]
SIRT2 inhibition activity (in words) [1]: inactive | IC50 [1]: > 100 µM

COC(=O)[C@H](CSC(c1ccccc1)(c1ccccc1)c1ccccc1)NCc1cccc(Br)n1 [STC1, Methyl N-((6-bromopyridin-2-yl)methyl)-S-trityl-L-cysteinate]
IC50 [1]: > 100 µM

CCN(CC)c1ccc(CN[C@@H](CSC(c2ccccc2)(c2ccccc2)c2ccccc2)C(=O)OC)cc1 [STC2, Methyl N-(4-(diethylamino)benzyl)-S-trityl-L-cysteinate]
IC50 [1]: > 100 µM

COC(=O)[C@H](CSC(c1ccccc1)(c1ccccc1)c1ccccc1)NCc1ccc(N(C)C)cc1 [STC3, Methyl N-(4-(dimethylamino)benzyl)-S-trityl-L-cysteinate]
IC50 [1]: > 100 µM

COC(=O)[C@H](CSC(c1ccccc1)(c1ccccc1)c1ccccc1)NCc1cc(N(C)C)ccn1 [STC4, Methyl N-((4-(dimethylamino)pyridin-2-yl)methyl)-S-trityl-L-cysteinate]
IC50 ([2]; Homo sapiens, HeLa): 1.56 ± 0.17 µM | IC50 [1]: 10.8 ± 1.9 µM | fold decrease in SIRT2 inhibition activity compared with TH-3 ([1]; vs TH-3): 10 fold | IC50 [3, 9]: 3.16 ± 0.26 µM | IC50 [4, 10]: 2.17 ± 0.25 µM | IC50 [5, 11]: 0.45 ± 0.05 µM | IC50 [6, 12]: 3.15 ± 0.13 µM

COC(=O)[C@H](CSC(c1ccccc1)(c1ccccc1)c1ccccc1)NCc1ccc(N(C)C)cc1Cl [STC5, Methyl N-(2-chloro-4-(dimethylamino)benzyl)-S-trityl-L-cysteinate]
IC50 [1]: > 100 µM

COC(=O)[C@H](CSC(c1ccccc1)(c1ccccc1)c1ccccc1)NCc1ccc(N(C)C)cc1OC [STC6, Methyl N-(2-methoxy-4-(dimethylamino)benzyl)-S-trityl-L-cysteinate]
IC50 [1]: > 100 µM

COC(=O)[C@H](CSC(c1ccccc1)(c1ccccc1)c1ccccc1)NCc1cnc2ccccc2c1 [STC7, Methyl N-(quinolin-3-ylmethyl)-S-trityl-L-cysteinate]
IC50 [1]: > 100 µM

COC(=O)[C@H](CSC(c1ccccc1)(c1ccccc1)c1ccccc1)NCc1ccccn1 [STC8, Methyl N-(pyridin-2-ylmethyl)-S-trityl-L-cysteinate]
SIRT2 inhibition activity (in words) [1]: devoid of SIRT2 inhibition activity | IC50 [1]: > 100 µM

CCN(CC)c1ccnc(CN[C@@H](CSC(c2ccccc2)(c2ccccc2)c2ccccc2)C(=O)OC)c1 [STC9, Methyl N-((4-(diethylamino)pyridin-2-yl)methyl)-S-trityl-L-cysteinate]
DNA cleavage effect [7]: strongest DNA cleavage effect | IC50 ([2]; Homo sapiens, HeLa): 2.72 ± 0.19 µM | IC50 [1]: 17.2 ± 1.2 µM | IC50 [3, 9]: 3.32 ± 0.41 µM | IC50 [4, 10]: 2.53 ± 0.31 µM | IC50 [5, 11]: 1.19 ± 0.09 µM | IC50 [6, 12]: 2.55 ± 0.28 µM

COC(=O)[C@H](CSC(c1ccccc1)(c1ccccc1)c1ccccc1)NC(=O)c1cc(N(C)C)ccn1 [STC10, Methyl N-(4-(dimethylamino)picolinoyl)-S-trityl-L-cysteinate]
SIRT2 inhibition activity (in words) [1]: no activity | IC50 [1]: > 100 µM

CN(C)c1ccnc(CN[C@H](CSC(c2ccccc2)(c2ccccc2)c2ccccc2)C(=O)NN)c1 [STC11, (S)-2-(((4-(dimethylamino)pyridin-2-yl)methyl)amino)-3-(tritylthio)propanehydrazide]
IC50 ([2]; Homo sapiens, HeLa): 7.95 ± 0.81 µM | IC50 [1]: 9.5 ± 1.2 µM | IC50 [3, 9]: 10 ± 1.12 µM | IC50 [4, 10]: 15 ± 1.17 µM | IC50 [5, 11]: 12.8 ± 0.95 µM | IC50 [6, 12]: 16.8 ± 1.04 µM

N[C@@H](CSC(c1ccccc1)(c1ccccc1)c1ccccc1)C(=O)O [STLC, S-trityl-L-cysteine]
half maximal tumor growth inhibition concentration [8]: 1.3 µM

Cc1cc(C)nc(SCC(=O)Nc2ncc(Cc3cccc4ccccc34)s2)n1 [SirReal2, reference compound]
IC50 [2]: 10.4 ± 0.94 µM | IC50 ([3]; 96 h exposure): 17.1 ± 2.15 µM | IC50 ([4]; 96 h exposure): 13.7 ± 0.44 µM | IC50 ([5]; 96 h exposure): 90.6 ± 8.77 µM | IC50 ([6]; 96 h exposure): 17.9 ± 1.52 µM

CCN(CC)c1ccnc(CN[C@H](Cc2cn(C(c3ccccc3)(c3ccccc3)c3ccccc3)cn2)C(=O)OC)c1 [TH-3, reference compound]
IC50 ([2]; Homo sapiens, HeLa): 0.37 ± 0.04 µM | IC50 [1]: 1.3 ± 0.2 µM | IC50 [3, 9]: 0.71 ± 0.08 µM | IC50 [4, 10]: 0.3 ± 0.02 µM | IC50 [5, 11]: 0.28 ± 0.04 µM | IC50 [6, 12]: 0.17 ± 0.02 µM

From publication PMC6766826, “Antiproliferative S-Trityl-L-Cysteine -Derived Compounds as SIRT2 Inhibitors: Repurposing and Solubility Enhancement” (Molecules, 2019)
